Assay results published in ChEMBL document CHEMBL3588813, “Antifungal Amphiphilic Aminoglycosides” (Medchemcomm, 2014).
Values after ≈ are worked out from the molar mass of the structure shown.

Columns and labels:
Escherichia coli = assay: Antimicrobial activity against Escherichia coli ATCC 25922 assessed as inhibition of bacterial growth incubated at 35 degC for 12 to 18 hrs; format: functional
Staphylococcus aureus [1] = assay: Antimicrobial activity against Staphylococcus aureus ATCC 25923 assessed as inhibition of bacterial growth incubated at 35 degC for 12 to 18 hrs; format: functional
Pseudomonas aeruginosa = assay: Antimicrobial activity against Pseudomonas aeruginosa ATCC 27853 assessed as inhibition of bacterial growth incubated at 35 degC for 12 to 18 hrs; format: functional
Enterococcus faecalis = assay: Antimicrobial activity against vancomycin-resistant Enterococcus faecalis ATCC 1299 assessed as inhibition of bacterial growth incubated at 35 degC for 12 to 18 hrs; format: functional
Fusarium graminearum [2] = assay: Antimicrobial activity against Fusarium graminearum B4-5A using RPMI medium by microbroth dilution assay; format: functional
Staphylococcus aureus [3] = assay: Antimicrobial activity against methicillin-resistant Staphylococcus aureus ATCC 33591 assessed as inhibition of bacterial growth incubated at 35 degC for 12 to 18 hrs; format: functional
[4] = Induction of hemolysis in sheep erythrocytes incubated at 37 degC for 60 mins; format: cell-based, Ovis aries, Erythrocyte
Fusarium graminearum [5] = assay: Antimicrobial activity against Fusarium graminearum B4-5A using potato dextrose broth as growth medium and diluent; format: functional
Botrytis cinerea = assay: Antimicrobial activity against Botrytis cinerea using potato dextrose broth as growth medium and diluent; format: functional
Rhodotorula mucilaginosa = assay: Antimicrobial activity against Rhodotorula piliminae using potato dextrose broth as growth medium and diluent; format: functional

Structure (SMILES)	MIC (Escherichia coli) [µg/mL]	MIC (Staphylococcus aureus [1]) [µg/mL]	MIC (Pseudomonas aeruginosa) [µg/mL]	MIC (Enterococcus faecalis) [µg/mL]	MIC (Fusarium graminearum [2]) [µg/mL]	MIC (Staphylococcus aureus [3]) [µg/mL]	IC90 at 1 h [4] [µg/mL]	MIC (Fusarium graminearum [5]) [µg/mL]	MIC (Botrytis cinerea) [µg/mL]	MIC (Rhodotorula mucilaginosa) [µg/mL]
CCCCCCc1cn(C[C@H]2O[C@@H](O[C@@H]3[C@@H](O)[C@H](N)C[C@H](N)[C@H]3O[C@H]3O[C@H](CN)[C@@H](O)[C@H](O)[C@H]3N)[C@H](O)[C@@H]2O[C@H]2O[C@@H](CN)[C@@H](O)[C@H](O)[C@H]2N)nn1	32 (≈ 42.7 µM)	4 (≈ 5.33 µM)								
CCCCCCCCCCCCCCCC(=O)NC[C@H]1O[C@@H](O[C@@H]2[C@@H](O)[C@H](N)C[C@H](N)[C@H]2O[C@H]2O[C@H](CN)[C@@H](O)[C@H](O)[C@H]2N)[C@H](O)[C@@H]1O[C@H]1O[C@@H](CN)[C@@H](O)[C@H](O)[C@H]1N	4 (≈ 4.69 µM)	1 (≈ 1.17 µM)	4 (≈ 4.69 µM)	4 (≈ 4.69 µM)	125 (≈ 147 µM)	2 (≈ 2.35 µM)	> 1000			
CCCCCCCCCCCCCCCCCC(=O)NC[C@H]1O[C@@H](O[C@@H]2[C@@H](O)[C@H](N)C[C@H](N)[C@H]2O[C@H]2O[C@H](CN)[C@@H](O)[C@H](O)[C@H]2N)[C@H](O)[C@@H]1O[C@H]1O[C@@H](CN)[C@@H](O)[C@H](O)[C@H]1N	4 (≈ 4.54 µM)	2 (≈ 2.27 µM)	8 (≈ 9.09 µM)	8 (≈ 9.09 µM)	125 (≈ 142 µM)	2 (≈ 2.27 µM)	> 1000			
NC[C@@H]1O[C@H](O[C@H]2[C@@H](O)[C@H](O[C@@H]3[C@@H](O)[C@H](N)C[C@H](N)[C@H]3O[C@H]3O[C@H](CN)[C@@H](O)[C@H](O)[C@H]3N)O[C@@H]2CNC(=O)c2cc(-c3ccccc3)nc3ccccc23)[C@H](N)[C@@H](O)[C@@H]1O	8 (≈ 9.47 µM)	4 (≈ 4.73 µM)								
CCCCCCCCCCCC(=O)NC[C@H]1O[C@@H](O[C@@H]2[C@@H](O)[C@H](N)C[C@H](N)[C@H]2O[C@H]2O[C@H](CN)[C@@H](O)[C@H](O)[C@H]2N)[C@H](O)[C@@H]1O[C@H]1O[C@@H](CN)[C@@H](O)[C@H](O)[C@H]1N	16 (≈ 20.1 µM)	8 (≈ 10.1 µM)	16 (≈ 20.1 µM)	64 (≈ 80.4 µM)		16 (≈ 20.1 µM)				
NCC[C@H](O)C(=O)N[C@@H]1C[C@H](N)[C@@H](O[C@H]2O[C@H](CN)[C@@H](O)[C@H](O)[C@H]2O)[C@H](O)[C@H]1O[C@H]1O[C@H](CO)[C@@H](O)[C@H](N)[C@H]1O [AMIKACIN]	1 (≈ 1.71 µM)	1 (≈ 1.71 µM)	0.5 (≈ 0.854 µM)	≥ 250		8 (≈ 13.7 µM)				
NC[C@H]1O[C@H](O[C@H]2[C@H](O)[C@@H](O[C@H]3O[C@H](CO)[C@@H](O)[C@H](N)[C@H]3O)[C@H](N)C[C@@H]2N)[C@H](N)[C@@H](O)[C@@H]1O [BEKANAMYCIN]								> 250		
NC[C@@H]1O[C@H](O[C@H]2[C@@H](O)[C@H](O[C@@H]3[C@@H](O)[C@H](N)C[C@H](N)[C@H]3O[C@H]3O[C@H](CN)[C@@H](O)[C@H](O)[C@H]3N)O[C@@H]2CO)[C@H](N)[C@@H](O)[C@@H]1O [FRAMYCETIN]	4 (≈ 6.51 µM)	1 (≈ 1.63 µM)	64 (≈ 104 µM)	≥ 250	62.5 (≈ 102 µM)	125 (≈ 203 µM)				
NC[C@@H]1O[C@@H](O[C@H]2[C@H](O)[C@@H](O[C@H]3O[C@H](CO)[C@@H](O)[C@H](N)[C@H]3O)[C@H](N)C[C@@H]2N)[C@@H](O)[C@H](O)[C@H]1O [KANAMYCIN A]					> 500					
CC1(C)CCC(Cc2ccc(Cl)cc2)C1(O)Cn1cncn1 (configuration not stated) [METCONAZOLE]								3.9 (≈ 12.2 µM)	7.8 (≈ 24.4 µM)	15.6 (≈ 48.8 µM)
CN[C@H](CC(C)C)C(=O)N[C@H]1C(=O)N[C@@H](CC(N)=O)C(=O)N[C@H]2C(=O)N[C@H]3C(=O)N[C@H](C(=O)N[C@H](C(=O)O)c4cc(O)cc(O)c4-c4cc3ccc4O)[C@H](O)c3ccc(c(Cl)c3)Oc3cc2cc(c3O[C@@H]2O[C@H](CO)[C@@H](O)[C@H](O)[C@H]2O[C@H]2C[C@](C)(N)[C@H](O)[C@H](C)O2)Oc2ccc(cc2Cl)[C@H]1O [VANCOMYCIN]	125 (≈ 86.3 µM)		≥ 250	250 (≈ 173 µM)						
